{"source": "paper PMC3579193", "about": "“Elucidation of relaxin-3 binding interactions in the extracellular loops of RXFP3” (Frontiers in Endocrinology, 2013)", "key": {"[1]": {"tested_on": "RXFP4 over RXFP3", "conditions": "ref Zhu et al., 2008; cited from earlier work", "source_text": "(§1) Although residues in the peptides have been identified as critical for activity, the specific residues in the receptors that are interacting with these are unknown. […] In addition they determined that sites in transmembrane (TM) 2, 3, and 5 are involved in receptor activation by INSL5 ([Zhu et al., 2008]). None of the receptor chimeras resulted ..."}, "[2]": {"molecular_target": "HA-RXFP3 E245A (human) (UniProt Q9NSD7)", "test": "europium-labelled ligand binding on cells; specific binding of 5 nM Eu-H3/I5 to transfected HEK-293T cells in 96 well optiplates; non-specific binding with 1 uM unlabeled H3 relaxin; expressed as ratio of specific binding to cell surface expression, normalized to HA-RXFP3"}, "[3]": {"molecular_target": "HA-RXFP3 E77A (human) (UniProt Q9NSD7)", "test": "europium-labelled ligand binding on cells; specific binding of 5 nM Eu-H3/I5 to transfected HEK-293T cells in 96 well optiplates; non-specific binding with 1 uM unlabeled H3 relaxin; expressed as ratio of specific binding to cell surface expression, normalized to HA-RXFP3"}, "[4]": {"tested_on": "RXFP1", "conditions": "ref Sudo et al., 2003; cited from earlier work", "source_text": "Relaxin-3 is a member of the relaxin peptide family. Peptides from this family activate relaxin family peptide (RXFP) receptors, which are Type I or Class A G protein-coupled receptors (GPCRs). […] The rela ..."}, "[5]": {"tested_on": "RXFP4", "conditions": "ref Liu et al., 2003a; cited from earlier work", "source_text": "Relaxin-3 is a member of the relaxin peptide family. Peptides from this family activate relaxin family peptide (RXFP) receptors, which are Type I or Class A G protein-coupled receptors (GPCRs). […] The rela ... || Based on the hypothesis that coevolution of relaxin-3 and RXFP3 occurred in vertebrates and that residues important for relaxin-3 binding and activation should therefore be conserved we performed multiple sequence alignments of all vertebrate RXFP3 sequences. […] Figure 1A highlights sequence alignments of representative mammalian species (human, chimpanzee, rat, mouse, platypus) and representative lower vertebrate species (Frog and Zebrafish) from this analysis compa ... || Based on the hypothesis that coevolution of relaxin-3 and RXFP3 occurred in vertebrates, and in the knowledge that the key relaxin-3 B-chain residues are conserved across all vertebrate species ([Wilkinson et al., 2005b]), we performed multiple sequence alignments of all vertebrate RXFP3 sequences to identify highly conserved residues in the ELs and NT domain that may be involved in relaxin-3 binding. […] We have focused on glutamic (E) and aspartic acid (D) residues ..."}, "[6]": {"tested_on": "rats", "conditions": "central administration, ref McGowan et al., 2005, 2006, Ganella et al., 2012b; cited from earlier work", "source_text": "Relaxin-3 is involved in a wide range of behaviors, including feeding, stress responses, arousal, and cognitive processes ([Smith et al., 2011]). […] Relaxin-3 neuronal activity and production of relaxi ..."}, "[7]": {"tested_on": "chimeric RXFP3/4 receptors", "conditions": "ref Zhu et al., 2008; cited from earlier work", "source_text": "as §1"}}, "note": "Ends that are not written are not given here."}
{"substance": "INSL5: related insulin-like peptide-5, ligand of RXFP4 (Insulin-like peptide INSL5 B … KESVRLCGLEYIRTVIYICASSRW; Insulin-like peptide INSL5 A … QDLQTLCCTDGCSMTDLSALC; ends and bridges not checked; cysteine pairing not given here; UniProt Q9Y5Q6 23-46; Q9Y5Q6 115-135, looked up)", "values": [{"measurement": "selectivity", "setting": "[1]", "result": "selectivity of INSL5 for RXFP4 over RXFP3"}]}
{"substance": "mono-Eu-labeled relaxin-3 agonist H3 relaxin B-chain, INSL5 A chain (H3/I5) (ligand)", "values": [{"measurement": "decrease in specific binding against HA-RXFP3", "setting": "[2]", "result": 50, "unit": "%"}, {"measurement": "loss of specific binding against HA-RXFP3", "setting": "[3]", "result": 50, "unit": "%"}]}
{"substance": "relaxin-3: highly conserved neuropeptide, member of the relaxin peptide family; endogenous ligand of RXFP3", "values": [{"measurement": "binding to and activation of RXFP1", "setting": "[4]", "result": "able to bind to and activate both RXFP4 ([Liu et al., 2003a]) and RXFP1"}, {"measurement": "binding to and activation of RXFP4", "setting": "[5]", "result": "able to bind to and activate both RXFP4"}, {"measurement": "effect on feeding", "setting": "[6]", "result": "increase feeding in rats"}, {"measurement": "effect of receptor chimeras on binding or activity", "setting": "[7]", "result": "None of the receptor chimeras resulted in appreciable changes in relaxin-3 binding or activity"}]}
